Where “and” joins values, the source holds several entries; their conditions need not be identical. Equal entries are not always repeated. Where two headings read alike, the source gives them in different places.
Key:
[1] = system: chronically HIV-1 infected ACH-2 cells; test: Virus expression from chronically HIV-1 infected T cell line ACH-2 (p24 antigen ELISA); type: cell-based
Experimental: (§1) Effects of suksdorfin analogs on Chronically HIV-1 infected cells. The experimental design is as follows: The phorbol ester, PMA (10^-8 M) and various concentrations of suksdorfin were either added or not added to both the chronically HIV-1 infected T cell line (ACH-2) and to the chronically HIV-1 infected monocytic cell line (U1). Cell-free supernatant was collected 72 hours post culture for p24 antigen ELISA.
Results (Table 11) from adding compound 16 to the chronically HIV-infected T cell line, ACH-2, according to methods in above examples. ACH-2 are a chronically HIV-1 infected T cell line. It was derived from A3.01 cells which is a subclone of the CEM cell line. The data below indicates the following points:
(§2) Chronically HIV-1 infected cell lines. HIV-1 chronically infected T cell line, ACH-2^12, and HIV-1 chronically infected promonocytic cell line, U1 13, were continuously maintained in RPMI 1640 with 10% fetal calf serum (FCS). For experiments, the cell lines were only used in the […] of growth. Cells (0.5×10^6 cells/well) and either various concentrations of suksdorfin or medium alone were added to 24-well plates in the presence or absence of PMA (10^-8 M). After 72 hours at 37° C. and 5% CO2, an aliquot of the cell-free supernatants were collected and analyzed for p24 antigen by ELISA (see below for details of p24 antigen ELISA).

[2] = system: chronically HIV-1 infected U1 cells; test: Virus expression from chronically HIV-1 infected monocytic cell line U1 (p24 antigen ELISA); type: cell-based
Experimental: as §1
Compound 16 was also assayed on ACH-2 (chronically HIV-1 infected T cell line). U1 cells are also chronically HIV-1 infected cells but they are from the monocytic cell line, U937. The data presented in Table 8 indicates the following points:
as §2

[3] = system: HIV-1 replication in H9 cells; test: HIV-1 replication inhibition in acutely infected H9 lymphocytes (p24 antigen ELISA); type: cell-based, HIV-1 (IIIB strain)
Experimental: HIV inhibition assay. The HIV inhibition was measured as described herein. Briefly, H9 cells, a T cell line, (3.5×10^6 cells/ml) were incubated in the presence or absence of HIV-1 (IIIB strain, 0.01-0.1 TCID50 /cell) for 1 hour at 37° C. Cells were washed thoroughly and resuspended at a final concentration of 2×10^5 cells/ml in the presence or absence of compound. After incubation for 3-4 days at 37° C., the cell density of uninfected cultures was determined by cell count to assess toxicity of the drug. An aliquot of each cell-free supernatant was assayed by p24 antigen ELISA to quantitate the amount of HIV-1 present in the infected cultures. Test compounds were considered to be active at a particular concentration if p24 antigen levels were less than 70% of infected, untreated controls and were nontoxic to uninfected H9 cells.
HIV Growth Inhibition Assay: The T cell line, H9, and the promonocytic cell line, U937, were maintained separately in continuous culture with complete medium (RPMI 1640 and […] fetal calf serum (FCS) at 5% CO2 and 37° C. Cell lines were used in experiments only when in log phase of growth; whereas, uninfected peripheral blood mononuclear cells (PBMCs) were first stimulated with PHA (1 μg/ml) for 3 days. All cell targets were incubated with HIV-1 (IIIB isolate, TCID50 10 ^4 IU/mi, at a multiplicity of infection of 0.1-0.01 IU/cell) for 1 hour at 37° C. and 5% CO2. The cell lines and PBMCs were washed thoroughly to remove unabsorbed virions and resuspended at 4×10^5 cells/ml in complete medium or complete medium with 10% v/v interleukin […] IL-2, respectively. Aliquots ( ml) were placed in wells of 24-well culture plates containing an equal volume of test compound (diluted in the appropriate culture medium). After incubation for 4 days at 37° C., cell density of uninfected cultures was determined by counting cells in a Coulter counter to assess toxicity of the test compound. A p24 antigen ELISA assay was used to determine the level of virus released in the medium of the HIV-infected cultures. The p24 antigen assay uses a HIV-1 anti-p24 specific monoclonal antibody as the capture antibody coated-on 96-well plates. Following a sample incubation period, rabbit serum containing antibodies for HIV-1 p24 is used to tag any p24 "captured" onto the microtiter well surface. Peroxidase conjugated goat anti-rabbit serum is then used to tag HIV-1 p24 specific rabbit antibodies which have complexed with captured p24. […] The cut-off for the p24 ELISA assay is 12. pg/ml. P24 in the culture medium was quantitated against a standard curve containing known amounts of p24. The effective (EC50) and inhibitory (IC50) concentrations (for anti-HIV activity and cytotoxicity, respectively) were determined graphically. Both the EC50 and IC50 values were calculated by plotting drug concentration versus percent inhibition, and then identifying a 50% inhibition value from the graph.

Cc1cn([C@H]2C[C@H](N=[N+]=[N-])[C@@H](CO)O2)c(=O)[nH]c1=O [AZT, azidothymidine, reference compound]
P24 ([1]; Table 11 (ACH-2), +PMA, 0.01 μg/ml): 21,373 pg/ml
P24 ([1]; Table 11 (ACH-2), +PMA, 0.1 μg/ml): 10,621 pg/ml
P24 ([1]; Table 11 (ACH-2), +PMA, 1 μg/ml): 17,088 pg/ml
P24 ([1]; Table 11 (ACH-2), +PMA, 10 μg/ml): 16,584 pg/ml
P24 ([1]; Table 11 (ACH-2), -PMA, 0.01 μg/ml): 796 pg/mL
P24 ([1]; Table 11 (ACH-2), -PMA, 0.1 μg/ml): 942 pg/mL
P24 ([1]; Table 11 (ACH-2), -PMA, 1 μg/ml): 904 pg/mL
P24 ([1]; Table 11 (ACH-2), -PMA, 10 μg/ml): 939 pg/mL
P24 ([2]; U1, +PMA, 0.01 μg/ml): 9626 pg/mL
P24 ([2]; U1, +PMA, 0.1 μg/ml): 4363 pg/mL
P24 ([2]; U1, +PMA, 1 μg/ml): 7898 pg/mL
P24 ([2]; U1, +PMA, 10 μg/ml): 8653 pg/mL
P24 ([2]; U1, -PMA, 0.01 μg/ml): 50 pg/mL
P24 ([2]; U1, -PMA, 0.1 μg/ml): 53 pg/mL
P24 ([2]; U1, -PMA, 1 μg/ml): 72 pg/mL
P24 ([2]; U1, -PMA, 10 μg/ml): 97 pg/mL
EC50 ([3]; Human immunodeficiency virus 1, H9, Table 3, H9 lymphocytes): 40 nM
EC50 ([3]; Human immunodeficiency virus 1, H9, Table 17, acutely infected H9 lymphocytes): 150 nM
Therapeutic Index ([3]; Table 3, H9 lymphocytes): 50,000
Therapeutic Index ([3]; Table 17, H9): 12,500

CC1(C)Oc2ccc3ccc(=O)oc3c2[C@@H](OC(=O)[C@@]23CC[C@@](C)(C(=O)O2)C3(C)C)[C@H]1OC(=O)[C@@]12CC[C@@](C)(C(=O)O1)C2(C)C [Compound 16, 3',4'-Di-O-(-)-Camphanoyl-(+)-cis-Khellactone]
P24 ([1]; ACH-2, +PMA, 0.0000102 μg/ml): 17,938 pg/ml
P24 ([1]; ACH-2, +PMA, 0.0000512 μg/ml): 16,079 pg/ml
P24 ([1]; ACH-2, +PMA, 0.00025 μg/ml): 22,756 pg/ml
P24 ([1]; ACH-2, +PMA, 0.00128 μg/ml): 22,344 pg/ml
P24 ([1]; ACH-2, +PMA, 0.032 μg/ml): 24,650 pg/ml
P24 ([1]; ACH-2, +PMA, 0.064 μg/ml [0.010 μM] (so in the source)): 24,364 pg/ml
P24 ([1]; ACH-2, +PMA, 0.16 μg/ml): 21,865 pg/ml
P24 ([1]; ACH-2, +PMA, 0.8 μg/ml): 20,183 pg/ml
P24 ([1]; ACH-2, +PMA, 4 μg/ml): 23,547 pg/ml
P24 ([1]; ACH-2, +PMA, 20 μg/ml): 24,858 pg/ml
P24 ([1]; ACH-2, -PMA, 0.0000102 μg/ml): 666 pg/mL
P24 ([1]; ACH-2, -PMA, 0.0000512 μg/ml): 659 pg/mL
P24 ([1]; ACH-2, -PMA, 0.00025 μg/ml): 777 pg/mL
P24 ([1]; ACH-2, -PMA, 0.00128 μg/ml): 811 pg/mL
P24 ([1]; ACH-2, -PMA, 0.032 μg/ml): 1319 pg/mL
P24 ([1]; ACH-2, -PMA, 0.064 μg/ml [0.010 μM] (so in the source)): 955 pg/mL
P24 ([1]; ACH-2, -PMA, 0.16 μg/ml): 1174 pg/mL
P24 ([1]; ACH-2, -PMA, 0.8 μg/ml): 976 pg/mL
P24 ([1]; ACH-2, -PMA, 4 μg/ml): 1194 pg/mL
P24 ([1]; ACH-2, -PMA, 20 μg/ml): 1509 pg/mL
effect on virus expression of PMA-stimulated ACH-2 cells (in words) ([1]; with PMA): did not suppress virus replication
induction of virus expression from ACH-2 cells (in words) ([1]; without PMA): did not induce the ACH-2 cells to make virus
P24 ([2]; U1, +PMA, 0.0000102 μg/ml): 7328 pg/mL
P24 ([2]; U1, +PMA, 0.0000512 μg/ml): 8710 pg/mL
P24 ([2]; U1, +PMA, 0.00025 μg/ml): 7757 pg/mL
P24 ([2]; U1, +PMA, 0.00128 μg/ml): 6335 pg/mL
P24 ([2]; U1, +PMA, 0.0064 μg/ml): 6419 pg/mL
P24 ([2]; U1, +PMA, 0.032 μg/ml): 8090 pg/mL
P24 ([2]; U1, +PMA, 0.16 μg/ml): 7162 pg/mL
P24 ([2]; U1, +PMA, 0.8 μg/ml): 8390 pg/mL
P24 ([2]; U1, +PMA, 4 μg/ml): 8742 pg/mL
P24 ([2]; U1, +PMA, 20 μg/ml): 9530 pg/mL
P24 ([2]; U1, -PMA, 0.0000102 μg/ml): 52 pg/mL
P24 ([2]; U1, -PMA, 0.0000512 μg/ml): 56 pg/mL
P24 ([2]; U1, -PMA, 0.00025 μg/ml): 78 pg/mL
P24 ([2]; U1, -PMA, 0.00128 μg/ml): 99 pg/mL
P24 ([2]; U1, -PMA, 0.0064 μg/ml): 90 pg/mL
P24 ([2]; U1, -PMA, 0.032 μg/ml): 101 pg/mL
P24 ([2]; U1, -PMA, 0.16 μg/ml): 76 pg/mL
P24 ([2]; U1, -PMA, 0.8 μg/ml): 88 pg/mL
P24 ([2]; U1, -PMA, 4 μg/ml): 41 pg/mL
P24 ([2]; U1, -PMA, 20 μg/ml): 95 pg/mL
effect on virus expression of PMA-stimulated U1 cells (in words) ([2]; with PMA): did not suppress virus replication
induction of virus expression from U1 cells (in words) ([2]; without PMA): did not induce the U1 cells to make virus
suppression ([3]; 0.000256 μg/ml, separate assays, H9): 35%
inhibition at 0.000256 µg/mL ([3]; Human immunodeficiency virus 1, H9, 0.000256 μg/ml, separate assays, H9, read-out: suppression): 44%
EC50 ([3]; Human immunodeficiency virus 1, H9, H9, text to Table 7, read-out: EC50): ≥ 0.000256 µg/mL and 0.41 nM
EC50 ([3]; Human immunodeficiency virus 1, H9, H9 lymphocytes, Table 3, read-out: ED^50 (the source's name)): ≥ 0.41 nM
EC50 ([3]; Human immunodeficiency virus 1, H9, Table 3, H9 lymphocytes, read-out: EC50): 0.41 nM
EC50 ([3]; Human immunodeficiency virus 1, H9, Table 7, read-out: EC5): 0.000256 µg/mL and 0.41 nM
EC50 ([3]; Human immunodeficiency virus 1, H9, Table 17, acutely infected H9 lymphocytes, read-out: EC50): 0.41 nM
anti-HIV activity in H9 cells (in words) ([3]; acutely infected H9 cells): potent anti-HIV activity
